Results: patent US20240254089A1, “MODULATORS OF MAS-RELATED G-PROTEIN RECEPTOR X4 AND RELATED PRODUCTS AND METHODS” (ESCIENT PHARMACEUTICALS, INC., priority 2020, published 2024)

Target: T1, human MRGPR X4 (Homo sapiens, UniProt Q96LA9)
T1 construct: expressed in transfected cells
Assay: MRGPR X4 antagonist activity, IP-One Gq HTRF assay in stably transfected HEK cells
Assay type: cell-based
Conditions: not given
Protocol: HEK cells stably transfected to express human MIRGPR X4 were maintained in an incubator at 37° C. with 5% CO2 and grown in DMEM media with 10% fetal bovine serum (FBS) and […] each of sodium pyruvate, Glutamax, penicillin/streptomycin, and Geneticin. HEK cells stably transfected to express mouse MRGPR A1 were maintained in the same incubator and grown in DMEM media with 10% FBS, 1% each of sodium pyruvate, Glutamax, penicillin/streptomycin, Geneticin, and 2.2 mg/mL Hygromycin.
Cells were plated in a 384-well assay plate at 20,000 cells per well in 12 μL of Opti-MEM and kept in an incubator overnight. On the day of the assay, compounds solubilized at 10 mM in DMSO were added as a 10-point curve (10 uM final top concentration with 1:3 serial dilutions) using a Tecan D300E digital dispenser. Agonists were diluted in assay buffer (final concentrations of 5.7 mM Tris-HCl, 43 mM NaCl, 50 mM LiCl, pH=8) and 2 μL of the appropriate agonist are added to each well. Final concentrations of agonists were 10 μM bilirubin, 20 μM deoxycholic acid, or 100 μM conjugated bilirubin (obtained from Lee Biosolutions, catalog #910-12). Final concentrations of DMSO were kept consistent across the plate. Plates were incubated in the dark for 1 h at 37° C. and then for 30 minutes at room temperature. IP-1 standards and HTRF detection reagents were added according to the IP-One—Gq Kit purchased from Cisbio (part number 62IPAPEJ) and incubated in the dark for 1 h at room temperature. The plate was read on a Molecular Devices SpectraMax iD5 plate reader. The HTRF ratio was calculated from the raw data and graphed using GraphPad Prism to calculate an IC50 value for each compound.

T1 sequence (Q96LA9 whole entry): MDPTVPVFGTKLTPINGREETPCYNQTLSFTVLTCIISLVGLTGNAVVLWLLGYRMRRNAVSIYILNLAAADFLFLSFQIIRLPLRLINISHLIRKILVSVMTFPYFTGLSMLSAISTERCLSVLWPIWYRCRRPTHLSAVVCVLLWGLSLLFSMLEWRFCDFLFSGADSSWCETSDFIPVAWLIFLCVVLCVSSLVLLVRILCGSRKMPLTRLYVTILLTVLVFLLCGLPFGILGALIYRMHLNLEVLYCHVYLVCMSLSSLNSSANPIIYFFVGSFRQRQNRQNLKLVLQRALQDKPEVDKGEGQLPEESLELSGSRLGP

Row | Structure (SMILES) | IC50 [nM]
1 | O=C(NCCc1nnc2ccccn12)c1nn(Cc2ccc(Cl)cc2)c2cc(C(F)(F)F)ccc12 [Compound 564] | < 100
2 | O=C(NCCc1nnc2ccccn12)c1nn(Cc2ccc(C(F)(F)F)cc2)c2ccc(F)cc12 [Compound 531] | < 100
3 | COc1ccccc1CCNC(=O)c1cn(Cc2cccc(F)c2)c2ccccc12 [Compound 221] | 1000 to 2500
4 | Cc1ccccc1CCNC(=O)c1nn(Cc2ccc(Cl)cc2)c2ccccc12 [Compound 363] | > 2500
5 | O=C(NCCc1cccc(OC(F)(F)F)c1)c1cn(Cc2ccc(Cl)cc2)c2ccccc12 [Compound 200] | 1000 to 2500
6 | CC(C)n1cnnc1CCNC(=O)c1nn(Cc2ccc(Cl)cc2)c2ccccc12 [Compound 99] | 1000 to 2500
7 | O=C(NCCc1ccc(Cl)c(F)c1)c1cn(Cc2ccc(C(F)(F)F)cc2)c2ccccc12 [Compound 209] | 1000 to 2500
8 | CC(c1ccc(Cl)cc1)n1nc(C(=O)NCCc2nc3c(s2)CCCC3)c2ccccc21 (stereo not shown) [Compound 118] | 1000 to 2500
9 | Cc1ccc(Cn2cc(C(=O)NCCc3cn4c(n3)SCC4)c3ccccc32)cc1 [Compound 181] | 100 to 500
10 | O=C(NCCCn1ccnc1)c1nn(Cc2ccc(Cl)cc2)c2ccccc12 [Compound 345] | > 2500
11 | O=C(NCCc1nnc2ccccn12)c1nn(Cc2cnc(C(F)(F)F)s2)c2ccccc12 [Compound 501] | 100 to 500
12 | CN(C)c1cccc(Cn2nc(C(=O)NCCc3nnc4ccccn34)c3ccccc32)n1 [Compound 492] | > 2500
13 | Cc1cc(C)c2oc(Cn3nc(C(=O)NCCc4nnc5ccccn45)c4ccccc43)cc2c1 [Compound 557] | 100 to 500
14 | O=C(NCCn1nnc2ccccc21)c1nn(Cc2ccc(Cl)cc2)c2ccc(F)cc12 [Compound 533] | < 100
15 | O=C(NCCc1nnc2n1CCCCC2)c1nn(Cc2cccc(F)c2)c2ccccc12 [Compound 58] | 100 to 500
16 | O=C(NCCc1nnc2ccccn12)c1nn(Cc2ccc3c(c2)OCO3)c2ccccc12 [Compound 508] | 100 to 500
17 | Cc1cc(Cn2nc(C(=O)NCCc3cccnc3)c3ccccc32)ccc1Cl [Compound 32] | 100 to 500
18 | O=C(NCCc1c[nH]c2ccc(Cl)cc12)c1nn(Cc2ccc(Cl)cc2)c2ccccc12 [Compound 396] | > 2500
19 | O=C(NCCc1nc2c(s1)CCCC2)c1nn(Cc2cccc(F)c2)c2ccccc12 [Compound 81] | 501 to 1000
20 | O=C(NCCc1ccccc1F)c1cn(Cc2ccc(Cl)cc2)c2ccccc12 [Compound 170] | 100 to 500
21 | O=C(NCCc1nnc2ccccn12)c1nn(CC(=O)C2CCCCC2)c2ccccc12 [Compound 469] | 1000 to 2500

Row | Structure (SMILES) | IC50 [nM]
22 | Cc1ccc(Cn2nc(C(=O)NCCc3ncon3)c3ccccc32)cc1 [Compound 126] | > 2500
23 | O=C(NCc1ccc(-n2cccn2)cc1)c1nn(Cc2ccc(Cl)cc2)c2ccccc12 [Compound 359] | > 2500
24 | Cc1ccc(Cn2nc(C(=O)NCCc3nnc4n3CCCCC4)c3ccccc32)cc1 [Compound 13] | < 100
25 | O=C(NCc1ccc2ncccc2c1)c1nn(Cc2ccc(Cl)cc2)c2ccccc12 [Compound 372] | > 2500
26 | Cc1ccc(Cn2cc(C(=O)NCCc3ccccn3)c3ccccc32)cc1 [Compound 158] | 100 to 500
27 | Cc1cc(Cl)ccc1Cn1nc(C(=O)NCCc2cccnc2)c2ccccc21 [Compound 37] | 100 to 500
28 | COc1ccccc1Cn1cc(C(=O)NCCc2cccnc2)c2ccccc21 [Compound 226] | > 2500
29 | CC(C)c1cccc(Cn2nc(C(=O)NCCc3nnc4ccccn34)c3ccccc32)c1 [Compound 456] | 100 to 500
30 | Cc1ncsc1CCNC(=O)c1nn(Cc2ccc(Cl)cc2)c2ccccc12 [Compound 367] | 100 to 500
31 | O=C(NCCc1nnc2ccccn12)c1nn(Cc2ccc(Cl)cc2)c2cc(F)ccc12 [Compound 3] | < 100
32 | O=C(NCCc1nnc2ccccn12)c1nn(Cc2ccc(C(F)(F)F)cc2Cl)c2ccccc12 [Compound 553] | < 100
33 | Cc1cccc2nc(Cn3nc(C(=O)NCCc4nnc5ccccn45)c4ccccc43)n(C)c12 [Compound 569] | 100 to 500
34 | O=C(NCc1cncnc1)c1nn(Cc2ccc(Cl)cc2)c2ccccc12 [Compound 375] | > 2500
35 | O=C(NCCc1nnc2ccccn12)c1nn(Cc2ccc(Cl)cc2)c2ccc(Cl)cc12 [Compound 12] | < 100
36 | Cc1nnc(CCNC(=O)c2nn(Cc3ccc(Cl)cc3)c3ccccc23)n1C [Compound 80] | 501 to 1000
37 | O=C(NCc1ccnc2ccccc12)c1nn(Cc2ccc(Cl)cc2)c2ccccc12 [Compound 371] | > 2500
38 | Cc1ccccc1Cn1cc(C(=O)NCCc2cccnc2)c2ccccc21 [Compound 225] | > 2500
39 | O=C(NCCc1nnc2n1CCCCC2)c1nn(Cc2ccc(C(F)(F)F)cc2)c2ccccc12 [Compound 5] | < 100
40 | COc1ccc(CCNC(=O)c2nn(Cc3ccc(Cl)cc3)c3ccccc23)cn1 [Compound 364] | 100 to 500
41 | CC(c1ccc(Cl)cc1)n1nc(C(=O)NCCc2nnc3n2CCCCC3)c2ccccc21 (stereo not shown) [Compound 74] | 501 to 1000
42 | O=C(NCCc1nc2c(s1)CCCC2)c1nn(Cc2ccc(Cl)c(Cl)c2)c2ccccc12 [Compound 56] | 100 to 500

Row | Structure (SMILES) | IC50 [nM]
43 | O=C(NCCC(=O)N1CCCC1)c1nn(Cc2ccc(Cl)cc2)c2ccccc12 [Compound 403] | 100 to 500
44 | O=C(NCCc1nnc2ccccn12)c1nn(Cc2ccc3sccc3c2)c2ccc(F)cc12 [Compound 538] | < 100
45 | COc1ccccc1OCCn1nc(C(=O)NCCc2nnc3ccccn23)c2ccccc21 [Compound 486] | 501 to 1000
46 | CC(=O)c1cccc(Cn2cc(C(=O)NCCc3cccnc3)c3ccccc32)c1 [Compound 232] | > 2500
47 | COc1ncccc1CCNC(=O)c1cn(Cc2cccc(F)c2)c2ccccc12 [Compound 203] | 1000 to 2500
48 | O=C(Nc1cnc2ccccc2c1)c1nn(Cc2ccc(Cl)cc2)c2ccccc12 [Compound 134] | 1000 to 2500
49 | O=C(NCCc1nnc2ccccn12)c1nn(Cc2nc(C(F)(F)F)no2)c2ccccc12 [Compound 513] | > 2500
50 | O=C(NCc1nc2ccccc2o1)c1nn(Cc2ccc(Cl)cc2)c2ccccc12 [Compound 393] | > 2500
51 | N#Cc1cccc(Cn2nc(C(=O)NCCc3nnc4ccccn34)c3ccccc32)c1 [Compound 446] | 1000 to 2500
52 | O=C(NCCCn1cnc2ccccc21)c1nn(Cc2ccc(Cl)cc2)c2ccccc12 [Compound 425] | 1000 to 2500
53 | O=C(NCCc1cccnc1)c1nn(Cc2ccccc2F)c2ccccc12 [Compound 125] | > 2500
54 | N#Cc1ccc(Cn2nc(C(=O)NCCc3nnc4ccccn34)c3ccccc32)cn1 [Compound 464] | 1000 to 2500
55 | Cc1ccc(Cn2nc(C(=O)NCCc3ccn(C)n3)c3ccccc32)cc1 [Compound 76] | 501 to 1000
56 | N#Cc1ccccc1Cn1cc(C(=O)NCCc2ccc(Cl)c(F)c2)c2ccccc21 [Compound 235] | > 2500
57 | O=C(NCCc1nnc2ccccn12)c1nn(Cc2ccc3c(c2)CCC3)c2ccc(F)cc12 [Compound 537] | < 100
58 | CC(C)(C)c1ccc(Cn2nc(C(=O)NCCc3ccccn3)c3ccccc32)cc1 [Compound 112] | 1000 to 2500
59 | O=C(NCCc1ccc(Cl)c(F)c1)c1cn(Cc2ccc(Cl)cc2)c2ccccc12 [Compound 205] | 1000 to 2500
60 | Cc1cccc(CCNC(=O)c2cn(Cc3ccc(Cl)cc3)c3ccccc23)c1 [Compound 180] | 100 to 500
61 | O=C(NCc1ccc(-n2cccn2)nc1)c1nn(Cc2ccc(Cl)cc2)c2ccccc12 [Compound 369] | > 2500
62 | O=C(NCCc1nnc2ccccn12)c1nn(CC2CCCCC2)c2ccccc12 [Compound 488] | 501 to 1000

Same assay, conditions: versus 20 μM deoxycholic acid agonist; HEK cells expressing human MRGPR X4; read-out: MRGPRX4 Antagonist Activity

Row | Structure (SMILES) | IC50 [nM]
63 | COc1ccc(S(=O)(=O)NC(=O)c2nn(Cc3ccc(OC(F)F)cc3)c3ccccc23)cc1 [Compound 289] | 1000 to 2500
64 | O=C(CS(=O)(=O)c1cn(Cc2ccc(Cl)cc2)c2ccccc12)Nc1cccc(Cl)c1 [Compound 253] | 1000 to 2500
65 | O=C(NCCc1ccccn1)c1cn(CCc2ccc(Cl)cc2)c2ccccc12 [Compound 217] | 1000 to 2500
66 | O=C(NCCc1nnc2ccccn12)c1nn(CCc2ccc(F)cc2F)c2ccccc12 [Compound 471] | > 2500
67 | O=S(=O)(NCCc1ccc(Cl)c(F)c1)c1cn(Cc2ccc(Cl)cc2)c2ccccc12 [Compound 314] | 1000 to 2500
68 | O=C(CS(=O)(=O)c1cn(Cc2ccc(Cl)cc2)c2ccccc12)Nc1ccccc1Cl [Compound 244] | 501 to 1000
69 | Cc1cc(C)cc(S(=O)(=O)NC(=O)c2nn(Cc3ccc(OC(F)F)cc3)c3ccccc23)c1 [Compound 268] | 501 to 1000
70 | Cc1c(Cl)cccc1S(=O)(=O)NC(=O)c1nn(Cc2cccc(F)c2)c2ccccc12 [Compound 307] | > 2500
71 | Cc1ccccc1CS(=O)(=O)NC(=O)c1nn(Cc2ccc(Cl)cc2)c2ccccc12 [Compound 288] | 1000 to 2500
72 | Cc1ccccc1S(=O)(=O)NC(=O)c1nn(Cc2ccc(C(F)(F)F)cc2Cl)c2ccccc12 [Compound 284] | 1000 to 2500
73 | Cc1cccc(S(=O)(=O)NC(=O)c2nn(Cc3ccc(OC(F)(F)F)cc3)c3ccccc23)c1 [Compound 272] | 1000 to 2500
